For series [1], the target named is T1, Prostaglandin G/H synthase 2 (Homo sapiens, UniProt P35354).
T1 sequence (P35354 whole entry): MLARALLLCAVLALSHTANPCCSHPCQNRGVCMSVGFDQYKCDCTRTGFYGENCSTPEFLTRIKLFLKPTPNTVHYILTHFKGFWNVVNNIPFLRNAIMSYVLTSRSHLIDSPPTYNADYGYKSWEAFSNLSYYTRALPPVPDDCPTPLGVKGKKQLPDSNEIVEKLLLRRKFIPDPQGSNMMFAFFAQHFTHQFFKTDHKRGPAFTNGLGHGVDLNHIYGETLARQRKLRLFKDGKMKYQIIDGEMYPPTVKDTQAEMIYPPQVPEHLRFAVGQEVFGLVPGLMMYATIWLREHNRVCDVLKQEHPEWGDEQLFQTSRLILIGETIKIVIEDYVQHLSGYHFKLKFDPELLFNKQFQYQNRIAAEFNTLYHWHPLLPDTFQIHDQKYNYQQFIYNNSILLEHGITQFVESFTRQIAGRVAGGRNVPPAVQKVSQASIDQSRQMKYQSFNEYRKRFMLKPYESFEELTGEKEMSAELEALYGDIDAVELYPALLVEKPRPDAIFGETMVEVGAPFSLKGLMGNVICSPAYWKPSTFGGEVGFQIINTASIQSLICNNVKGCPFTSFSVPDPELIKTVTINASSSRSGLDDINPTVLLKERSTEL

Series [2] concerns the target Prostaglandin G/H synthase 1 (Homo sapiens, UniProt P23219).
The next series is filed under the species Homo sapiens. The series can be described thus: Selectivity ratio of IC50 for human COX1 to IC50 for human COX2.
A short description of series [3]: Metabolic stability of the compound in human liver microsomes assessed as compound remaining at 2 mM after 30 mins by LC/MS analysis. The series is classed as ADME, Microsome. The settings on record: read-out: Stability.
Series [4] is described as follows: Metabolic stability of the compound in rat liver microsomes assessed as compound remaining at 2 mM after 30 mins by LC/MS analysis. The conditions noted are these: read-out: Stability. The series is classed as ADME, Microsome. (Microsomes from liver hold many membrane-bound enzymes, among them those of drug oxidation.)
A short description of series [5]: Solubility of the compound. It is filed as physicochemical. The conditions noted are these: read-out: Stability.
Series [6] is described as follows: Half life in human. It is filed as ADME, organism-based. The settings on record: in vivo.

Molecules are shown by their SMILES. A value given as a limit tells only on which side of the number the result lay.

Sequence of Prostaglandin G/H synthase 1 (P23219 whole entry): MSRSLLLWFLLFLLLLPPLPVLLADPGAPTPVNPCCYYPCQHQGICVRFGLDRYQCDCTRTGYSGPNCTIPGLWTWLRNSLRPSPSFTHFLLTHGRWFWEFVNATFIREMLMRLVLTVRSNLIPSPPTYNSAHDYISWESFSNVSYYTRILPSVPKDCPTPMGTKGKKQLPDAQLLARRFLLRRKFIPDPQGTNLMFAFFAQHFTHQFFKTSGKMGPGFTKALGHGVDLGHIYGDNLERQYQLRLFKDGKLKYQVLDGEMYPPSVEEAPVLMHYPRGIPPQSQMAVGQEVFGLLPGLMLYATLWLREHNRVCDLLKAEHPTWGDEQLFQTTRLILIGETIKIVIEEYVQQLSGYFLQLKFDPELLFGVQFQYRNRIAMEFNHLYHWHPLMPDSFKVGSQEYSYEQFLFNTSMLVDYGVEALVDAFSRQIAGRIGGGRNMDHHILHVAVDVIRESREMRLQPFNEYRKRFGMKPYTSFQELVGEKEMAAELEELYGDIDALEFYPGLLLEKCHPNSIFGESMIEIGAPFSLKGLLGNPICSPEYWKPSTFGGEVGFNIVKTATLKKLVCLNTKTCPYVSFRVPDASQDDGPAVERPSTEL

By IC50 is commonly meant the concentration that inhibits the measured activity by half. Lower therefore signals higher potency. As to `CS(=O)(=O)c1ccc(-c2cc(Cl)cc3c2OC(C(F)(F)F)C(C(=O)O)=C3)cc1` (stereo not drawn), the IC50 in series [1] stood at 21.3 µM; in series [2] it was 3.87 µM. The Selectivity ratio in the series filed under Homo sapiens came to 0.182.

Consider `CCc1ccc(-c2cc(Cl)cc3c2OC(C(F)(F)F)C(C(=O)O)=C3)cc1` (stereo not drawn), for which the remaining at 0.5 h in series [3] turned out to be 18%; in series [4] it was 60%. This compound came in with an IC50 in series [2] of 17.7 µM. Moreover, the Selectivity ratio in the series listed under Homo sapiens came out at 226.

Consider `O=C(O)C1=Cc2cc(Cl)cc(-c3ccccc3)c2OC1C(F)(F)F` (stereo not drawn), for which the IC50 in series [1] turned out to be 0.188 µM; in series [2], 1.54 µM. The Selectivity ratio in the series filed under Homo sapiens turned out to be 8.2.

In the case of `O=C(O)C1=Cc2cc(Cl)cc(-c3ccc(Cl)cc3)c2OC1C(F)(F)F` (stereo not drawn), the remaining at 0.5 h turned out to be 53% in series [3] and 57% in series [4]. Moreover, the IC50 was found to be 0.0211 µM in series [1] and 0.242 µM in series [2]. The Selectivity ratio in the series filed under Homo sapiens was 11.4.

On to `Cc1ccc(-c2cc(Cl)cc3c2OC(C(F)(F)F)C(C(=O)O)=C3)cc1` (stereo not drawn), for which the figures for the remaining at 0.5 h in series [3] and in series [4] were 18% and 60%, respectively. In addition, the half-maximal inhibitory concentration (IC50) was 0.103 µM in series [1] and 4.34 µM in series [2]. Moreover, the Selectivity ratio in the series filed under Homo sapiens stood at 42.1.

Take `CS(=O)(=O)Nc1ccc(-c2cc(Cl)cc3c2OC(C(F)(F)F)C(C(=O)O)=C3)cc1` (stereo not drawn): the remaining at 0.5 h was determined as 100% in series [3] and 53% in series [4]. The IC50 in series [1] is 40.1 µM; in series [2], greater than 100 µM. Moreover, in the series filed under Homo sapiens, the Selectivity ratio was greater than 2.5.

Regarding `O=C(O)C1=Cc2cc(Cl)cc(-c3ccc(F)cc3)c2OC1C(F)(F)F` (stereo not drawn), in series [1], the 50% inhibitory concentration (IC50) was greater than 100 µM. For the same compound, the Selectivity ratio in the series listed under Homo sapiens was less than 0.007.

Take `Cc1ccc(-c2cc(Cl)cc3c2OC(C(F)(F)F)C(C(=O)O)=C3)cc1F` (stereo not drawn): the remaining at 0.5 h in series [3] turned out to be 31%; in series [4] it was 55%. In addition, the Selectivity ratio in the series filed under Homo sapiens came out at 375.

For the compound `O=C(O)C1=Cc2cc(Cl)cc(-c3ccc(O)cc3)c2OC1C(F)(F)F` (stereo not drawn), the values for the remaining at 0.5 h in series [3] and in series [4] were 91% and 94%, respectively. The IC50 in series [1] was determined as 3.48 µM; in series [2] it was 2.91 µM. The Selectivity ratio in the series listed under Homo sapiens turned out to be 0.84.

Take `O=C(O)C1=Cc2cc(Cl)cc(-c3ccc(C(=O)O)cc3)c2OC1C(F)(F)F` (stereo not drawn): the remaining at 0.5 h in series [3] came out at 90%; in series [4] it was 91%. Besides, the 50% inhibitory concentration (IC50) in series [1] and in series [2] was greater than 100 µM in each case.

On to `CC(C)Cc1ccc(-c2cc(Cl)cc3c2OC(C(F)(F)F)C(C(=O)O)=C3)cc1` (stereo not drawn), for which the results for the remaining at 0.5 h in series [3] and in series [4] were 88% and 96%, respectively. Further, the IC50 came out at 13.4 µM in series [1] and 26.5 µM in series [2]. Moreover, the Selectivity ratio in the series filed under Homo sapiens turned out to be 2.

For `CCOc1ccc(-c2cc(Cl)cc3c2OC(C(F)(F)F)C(C(=O)O)=C3)cc1` (stereo not drawn), the remaining at 0.5 h in series [3] was determined as 91%; in series [4], 82%. Moreover, the IC50 came to 0.355 µM in series [1] and 32 µM in series [2]. Besides, the Selectivity ratio in the series filed under Homo sapiens was 90.1.

The term half-life denotes the time in which the quantity being followed falls by half. A low value points to rapid decline. With `O=C(O)C1=Cc2cc(Cl)cc(Cl)c2OC1C(F)(F)F` (stereo not drawn), in series [5], the solubility was greater than 30 µM. Also, the half-life in series [6] is 15 days. Moreover, the remaining at 0.5 h in series [3] and in series [4] was 100% each time.

Consider `NS(=O)(=O)c1ccc(-c2cc(Cl)cc3c2OC(C(F)(F)F)C(C(=O)O)=C3)cc1` (stereo not drawn), for which the half-maximal inhibitory concentration (IC50) in series [2] turned out to be 91.4 µM. Moreover, in the series filed under Homo sapiens, the Selectivity ratio was found to be 120.

Consider `Nc1ccc(-c2cc(Cl)cc3c2OC(C(F)(F)F)C(C(=O)O)=C3)cc1` (stereo not drawn), for which the remaining at 0.5 h was determined as 93% in series [3] and 53% in series [4]. Further, the results for the IC50 in series [1] and in series [2] were 1.82 µM and 1.39 µM, respectively. In the series listed under Homo sapiens, the Selectivity ratio was 0.764.

In the case of `CCSc1ccc(-c2cc(Cl)cc3c2OC(C(F)(F)F)C(C(=O)O)=C3)cc1` (stereo not drawn), the remaining at 0.5 h in series [3] amounted to 75%; in series [4] it was 47%. Moreover, in series [1], the IC50 was 0.242 µM.

In the case of `O=C(O)C1=Cc2cc(Cl)cc(-c3ccc(CO)cc3)c2OC1C(F)(F)F` (stereo not drawn), the remaining at 0.5 h came out at 93% in series [3] and 75% in series [4]. Moreover, the results for the IC50 in series [1] and in series [2] were 6.38 µM and 2.44 µM, respectively. In the series filed under Homo sapiens, the Selectivity ratio amounted to 0.38.

Regarding `COc1ccc(-c2cc(Cl)cc3c2OC(C(F)(F)F)C(C(=O)O)=C3)cc1C` (stereo not drawn), the remaining at 0.5 h in series [3] stood at 84%; in series [4], 61%. The IC50 in series [1] was 0.339 µM; in series [2] it was greater than 100 µM. The Selectivity ratio in the series listed under Homo sapiens is greater than 295.

(Values after ChEMBL document CHEMBL1667779, “Structure-based parallel medicinal chemistry approach to improve metabolic stability of benzopyran COX-2 inhibitors” (Bioorg Med Chem Lett, 2011).)
